The record followed here is patent US20160159774A1 (Celgene Avilomics Research, Inc., priority 2014, published 2016).

What is called EC50 is the concentration needed to bring the measured effect to its halfway point. As a reminder, the IC50 is the concentration that inhibits the measured activity by half.

Assay [1] deals with T1, BTK in Ramos human Burkitt lymphoma cells (Homo sapiens, UniProt Q06187).
T1 construct: Compounds of this invention were assayed in Ramos human Burkitt lymphoma cells; endogenous in cells; host or cells: Ramos human Burkitt lymphoma cells
The assay is described as follows: BTK Ramos cellular assay (BTK occupancy). The class given is cell-based. The settings on record: concentration producing 50% occupancy of BTK, 1 hour incubation with compound. The protocol:
BTK activity in Ramos cells, in the presence of a compound of the invention, can be measured by 3 different methods: 1) inhibition of autophosphorylation of BTK; 2) inhibition of phosphorylation of the immediate BTK surrogate PLCγ2; and 3) BTK occupancy. […] In this instance, BTK occupancy was chosen and is described below.
Compounds of this invention were assayed in Ramos human Burkitt lymphoma cells. Ramos cells were grown in suspension in T175 flasks, spun down, resuspended to a concentration of 2×10^6 cells per mL in serum-free media and incubated for 1 hour. Compound was added to Ramos cells to a final concentration of 500, 166.7, 55.6, 18.5, 6.2, 2.1, and 0.7 nM. Ramos cells were incubated with compound for 1 hour, washed with PBS and lysed in 1004 of BioRad lysis Buffer. Cell lysates were incubated with a biotinylated covalent probe (compound 1-215 disclosed in U.S. published application number 2010/0029610, incorporated by reference in its entirety) at a final concentration of 1 μM in a PBS, 0.05% Tween-20, 1% BSA solution for 1 h at room temperature. Standards and samples were transferred to a streptavidin-coated 96-well ELISA plate and mixed while shaking for 1 h at room temperature. The α-Btk antibody (BD 611116, 1:1000 dilution in PBS+0.05% Tween-20+0.5% BSA) was then added and incubated for 1 h at room temperature. After wash, goat α-mouse-HRP (1:5000 dilution in PBS+0.05% Tween-20+0.5% BSA) was added and incubated for 1 h at room temperature. The ELISA was developed with addition of tetramethyl benzidine (TMB) followed by Stop Solution and read at OD 450 nm. The standard curve (11.7-3000 pg/μL) was generated with human full-length recombinant Btk protein and plotted using a 4 parameter curve fit in Gen5 software. Uninhibited Btk detected from samples was normalized to μg total protein as determined by BCA protein analysis (Pierce Cat. 23225).
The results of this assay show the concentration of compound producing 50% occupancy of BTK. This level of occupancy empirically translates to a level of 50% inhibition of BTK activity (both as measured by autophosphorylation and by phosphorylation of PLCγ2). […] The compound numbers correspond to the compound numbers in the examples.

A further assay concerns the target T2, activated BTK enzyme (Homo sapiens, UniProt Q06187).
T2 construct: purchased Life Technologies PV3363
The assay is described as follows: Omnia assay for potency assessment against BTK. The class given is biochemical. The settings on record: BTK inhibition assay; [BTK]=5 nM, [ATP]=40 μM, [Y5-Sox]=10 μM. From the text: Omnia Assay Protocol for Potency Assessment Against BTK
The protocol below describes an assay to measure potency of compounds against the activated BTK enzyme. The mechanics of the assay platform are best described by the vendor (Life Technologies, Carlsbad, Calif.) on their website at the following URLs: www.lifetechnologies.com/us/en/home/life-science/drug-discovery/target-and-lead-identification-and-validation/kinasebiology/kinase-activity-assays/omnia-kinase-assays/omnia-kinase-principle.html and tools.lifetechnologies.com/content/sfs/manuals/omnia_kinase_assay_man.pdf
Briefly, 10× stocks of BTK (PV3363) from Life Technologies, 1.13×ATP (AS00lA) and Sox conjugated peptide substrates, Y5-Sox, (KZN305l) were prepared in 1× kinase reaction buffer consisting of 20 mM Tris, pH 7.5, 5 mM MgCl2, 1 mM EGTA, 5 mM (3-glycerophosphate, 5% glycerol (10× stock, KB002A) and 0.2 mM DTT (DS00lA). 5 μL of each enzyme were pre-incubated in a Corning (#3574) 384-well, white, non-binding surface microtiter plate (Corning, N.Y.) for 30 min. at room temperature with a 0.5 μL volume of 50% DMSO or serially diluted compounds prepared in 50% DMSO. Kinase reactions were started with the addition of […] of the ATP/Tyr-Sox peptide substrate Y5 mix and monitored every 71 seconds for 60 minutes at λex360/λem485 in a Synergy4 plate reader from BioTek (Winooski, Vt.). At the conclusion of each assay, progress curves from each well were examined for linear reaction kinetics and fit statistics (R2, 95% confidence interval, absolute sum of squares). Initial velocity (0 minutes to ˜30 minutes) from each reaction was determined from the slope of a plot of relative fluorescence units vs time (minutes) and then plotted against inhibitor concentration to estimate IC50 from log [Inhibitor] vs Response, Variable Slope model in GraphPad Prism from GraphPad Software (San Diego, Calif.).
Reagent conditions for the assay are:
[BTK]=5 nM, [ATP]=40 μM, [Y5-Sox]=10 μM (ATP KMapp˜36 μM).
The compound numbers correspond to the compound numbers in the examples.

T1 sequence (Q06187 whole entry): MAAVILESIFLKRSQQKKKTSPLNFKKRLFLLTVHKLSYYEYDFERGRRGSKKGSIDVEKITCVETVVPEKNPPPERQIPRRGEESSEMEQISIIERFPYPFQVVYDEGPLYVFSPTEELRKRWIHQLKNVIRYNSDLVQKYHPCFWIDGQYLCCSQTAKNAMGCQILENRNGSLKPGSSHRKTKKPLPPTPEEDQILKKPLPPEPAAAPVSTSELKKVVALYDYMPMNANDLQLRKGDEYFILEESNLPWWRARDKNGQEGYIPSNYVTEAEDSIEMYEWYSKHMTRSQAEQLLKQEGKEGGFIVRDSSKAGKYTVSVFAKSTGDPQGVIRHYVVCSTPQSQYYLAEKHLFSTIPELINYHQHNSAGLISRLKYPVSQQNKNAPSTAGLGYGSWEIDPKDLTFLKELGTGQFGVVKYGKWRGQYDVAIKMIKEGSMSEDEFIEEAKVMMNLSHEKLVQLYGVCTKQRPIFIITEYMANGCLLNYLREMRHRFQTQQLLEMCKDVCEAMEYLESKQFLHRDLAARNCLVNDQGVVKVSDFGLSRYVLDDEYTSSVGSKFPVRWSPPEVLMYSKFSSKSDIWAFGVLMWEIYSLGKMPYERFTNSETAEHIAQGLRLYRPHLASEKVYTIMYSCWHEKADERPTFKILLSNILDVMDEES
T2 sequence (Q06187 whole entry): as above

For `[2H]C([2H])([2H])N1Cc2ccc(Nc3ncc(F)c(N[C@@H]4CCCN(C(=O)C=C)C4)n3)cc2C1` [Compound I-20, (R)-1-(3-((5-Fluoro-2-((2-deuteromethylisoindolin-5-yl)amino)pyrimidin-4-yl)amino)piperidin-1-yl)prop-2-en-1-one], the EC50 in assay [1] is less than 10 nM. Also, at activated BTK enzyme, the IC50 is less than 10 nM.

Take `C=CC(=O)N1CCC[C@@H](Nc2nc(Nc3ccc4c(c3)CN(C3CC3)C4)ncc2F)C1` [Compound I-21, (R)-1-(3-((2-((2-cyclopropylisoindolin-5-yl)amino)-5-fluoropyrimidin-4-yl)amino)piperidin-1-yl)prop-2-en-1-one]: the EC50 in assay [1] lay within 10 to 100 nM. Besides, the IC50 at activated BTK enzyme is less than 10 nM.

For the molecule `C=CC(=O)N1CCC[C@@H](Nc2nc(Nc3ccc4c(c3)CN(CC(F)(F)F)C4)ncc2F)C1` [Compound I-22, (R)-1-(3-((5-fluoro-2-((2-(2,2,2-trifluoroethyl)isoindolin-5-yl)amino)pyrimidin-4-yl)amino)piperidin-1-yl)prop-2-en-1-one], the concentration for a half-maximal effect (EC50) in assay [1] was in the range of 10 to 100 nM. Further, the concentration for half-maximal inhibition (IC50) at activated BTK enzyme is less than 10 nM.

On to `C=CC(=O)N1CCC[C@@H](Nc2nc(Nc3ccc4c(c3)CN(CCO)C4)ncc2F)C1` [Compound I-23, (R)-1-(3-((5-fluoro-2-((2-(2-hydroxyethyl)isoindolin-5-yl)amino)pyrimidin-4-yl)amino)piperidin-1-yl)prop-2-en-1-one], for which the half-maximal effective concentration (EC50) in assay [1] was less than 10 nM. In addition, on activated BTK enzyme, the IC50 is less than 10 nM.

`C=CC(=O)N1CCC[C@@H](Nc2nc(Nc3ccc4c(c3)CN(c3ccc(F)cc3)C4)ncc2F)C1` [Compound I-24, (R)-1-(3-((5-fluoro-2-((2-(4-fluorophenyl)isoindolin-5-yl)amino)pyrimidin-4-yl)amino)piperidin-1-yl)prop-2-en-1-one]: the 50% effective concentration (EC50) in assay [1] was in the range of 101 to 1000 nM. For the same molecule, the half-inhibitory concentration (IC50) at activated BTK enzyme was less than 10 nM.

For the molecule `C=CC(=O)N1CCC[C@@H](Nc2nc(Nc3ccc4c(c3)CN(C(C)(C)C)C4)ncc2F)C1` [Compound I-25, (R)-1-(3-((2-((2-(tert-butyl)isoindolin-5-yl)amino)-5-fluoropyrimidin-4-yl)amino)piperidin-1-yl)prop-2-en-1-one], the 50% effective concentration (EC50) in assay [1] was less than 10 nM. Besides, the IC50 at activated BTK enzyme is less than 10 nM.

Turning to `C=CC(=O)N1CC2(CC(Nc3nc(Nc4ccc5c(c4)CN(C)C5)ncc3F)C2)C1` [Compound I-26, 1-(6-((5-Fluoro-2-((2-methylisoindolin-5-yl)amino)pyrimidin-4-yl)amino)-2-azaspiro[3.3]heptan-2-yl)prop-2-en-1-one], the EC50 in assay [1] was less than 10 nM. For the same molecule, at activated BTK enzyme, the IC50 was less than 10 nM.

`C=CC(=O)N1CCC[C@@H](Nc2nc(Nc3ccc4c(c3)CCNC4)ncc2F)C1` [Compound I-27, (R)-1-(3-((5-fluoro-2-((1,2,3,4-tetrahydroisoquinolin-6-yl)amino)pyrimidin-4-yl)amino)piperidin-1-yl)prop-2-en-1-one]: in assay [1], the 50% effective concentration (EC50) was 10 to 100 nM. For the same molecule, at activated BTK enzyme, the IC50 was less than 10 nM.

For the molecule `C=CC(=O)N1CCC[C@@H](Nc2nc(Nc3ccc4c(c3)CCN(C)C4)ncc2F)C1` [Compound I-28, (R)-1-(3-((5-Fluoro-2-((2-methyl-1,2,3,4-tetrahydroisoquinolin-6-yl)amino)-pyrimidin-4-yl)amino)piperidin-1-yl)prop-2-en-1-one], the concentration giving a half-maximal response (EC50) in assay [1] was in the range of 10 to 100 nM. Further, the half-inhibitory concentration (IC50) at activated BTK enzyme was less than 10 nM.

On to `C=CC(=O)N1CCC[C@@H](Nc2nc(Nc3ccc4c(c3)CCN(C(C)C)C4)ncc2F)C1` [Compound I-29, (R)-1-(3-((5-Fluoro-2-((2-isopropyl-1,2,3,4-tetrahydroisoquinolin-6-yl)amino)-pyrimidin-4-yl)amino)piperidin-1-yl)prop-2-en-1-one], for which the EC50 in assay [1] lay within 10 to 100 nM. Further, on activated BTK enzyme, the IC50 was less than 10 nM.

Turning to `C=CC(=O)N1CCC[C@@H](Nc2nc(Nc3ccc4c(c3)CCN(C(C)=O)C4)ncc2F)C1` [Compound I-30, (R)-1-(3-((2-((2-Acetyl-1,2,3,4-tetrahydroisoquinolin-6-yl)amino)-5-fluoro-pyrimidin-4-yl)amino)piperidin-1-yl)prop-2-en-1-one], the EC50 in assay [1] fell in the range of 10 to 100 nM. Further, the IC50 at activated BTK enzyme was less than 10 nM.

As for `C=CC(=O)N1CCC[C@@H](Nc2nc(Nc3ccc4c(c3)CCN(C3COC3)C4)ncc2F)C1` [Compound I-31, (R)-1-(3-(5-Fluoro-2-(2-(oxetan-3-yl)-1,2,3,4-tetrahydroisoquinolin-6-ylamino)-pyrimidin-4-ylamino)piperidin-1-yl)prop-2-en-1-one], the EC50 in assay [1] was less than 10 nM. In addition, the concentration for half-maximal inhibition (IC50) on activated BTK enzyme is less than 10 nM.

Turning to `C=CC(=O)N1CCC[C@@H](Nc2nc(Nc3ccc4c(c3)CCN(CC3COC3)C4)ncc2F)C1` [Compound I-32, (R)-1-(3-(5-Fluoro-2-(2-(oxetan-3-ylmethyl)-1,2,3,4-tetrahydroisoquinolin-6-ylamino)pyrimidin-4-ylamino)piperidin-1-yl)prop-2-en-1-one], the EC50 in assay [1] was less than 10 nM. Moreover, the IC50 at activated BTK enzyme was less than 10 nM.

For `C=CC(=O)N1CCC[C@@H](Nc2nc(Nc3ccc4c(c3)CNCC4)ncc2F)C1` [Compound I-33, (R)-1-(3-(5-fluoro-2-(1,2,3,4-tetrahydroisoquinolin-7-ylamino)pyrimidin-4-ylamino)-piperidin-1-yl)prop-2-en-1-one], the EC50 in assay [1] is less than 10 nM. Further, the 50% inhibitory concentration (IC50) on activated BTK enzyme is less than 10 nM.

Consider `C=CC(=O)N1CCC[C@@H](Nc2nc(Nc3ccc4c(c3)CN(C)CC4)ncc2F)C1` [Compound I-34, (R)-1-(3-((5-Fluoro-2-((2-methyl-1,2,3,4-tetrahydroisoquinolin-7-yl)amino)-pyrimidin-4-yl)amino)piperidin-1-yl)prop-2-en-1-one], for which the EC50 in assay [1] was less than 10 nM. The concentration for half-maximal inhibition (IC50) on activated BTK enzyme was less than 10 nM.

As to `C=CC(=O)N1CCC[C@@H](Nc2nc(Nc3ccc4c(c3)CN(C3COC3)CC4)ncc2F)C1` [Compound I-35, (R)-1-(3-(5-Fluoro-2-(2-(oxetan-3-yl)-1,2,3,4-tetrahydroisoquinolin-7-ylamino)-pyrimidin-4-ylamino)piperidin-1-yl)prop-2-en-1-one], in assay [1], the EC50 is less than 10 nM. Further, the IC50 on activated BTK enzyme was less than 10 nM.

Consider `C=CC(=O)N1CCC[C@@H](Nc2nc(Nc3ccc4c(c3)CN(CC3COC3)CC4)ncc2F)C1` [Compound I-36, (R)-1-(3-(5-Fluoro-2-(2-(oxetan-3-ylmethyl)-1,2,3,4-tetrahydroisoquinolin-7-ylamino)pyrimidin-4-ylamino)piperidin-1-yl)prop-2-en-1-one], for which the concentration for a half-maximal effect (EC50) in assay [1] is less than 10 nM. In addition, the IC50 on activated BTK enzyme is less than 10 nM.

Consider `C=CC(=O)N1CCC[C@@H](Nc2nc(Nc3cc(F)c4c(c3)CN(C)C4)ncc2F)C1` [Compound I-37, (R)-1-(3-(5-Fluoro-2-(7-fluoro-2-methylisoindolin-5-ylamino)pyrimidin-4-ylamino)piperidin-1-yl)prop-2-en-1-one], for which the EC50 in assay [1] was 101 to 1000 nM. Further, the half-inhibitory concentration (IC50) at activated BTK enzyme is less than 10 nM.
